Where two headings read alike, the source gives them in different places. A value given as a limit tells only on which side of the number the result lay.

The source of these data is patent US20240124503A1, “HETEROAROMATIC PHOSPHONIUM SALTS AND THEIR USE TREATING CANCER” (FLORATEK PHARMA S.A., priority 2021, published 2024).

Holding throughout (assay type): cell-based
The subject of test [1] is ES-06-0122. As to the kind of experiment: Cell viability, esophagus PDX ES-06-0122. Here is the method:
(§1) PDX-derived cell cultures were obtained from tumors explanted from mice and isolated by mechanical and enzymatic dissociation. […] Cells were harvested and seeded in 96-wells plates at a density of 1.25 to 5×10^3 cells/well for cytotoxicity assays. Cells were incubated 48 h at 37° C. prior to addition of test molecules and vehicle (DMSO, 0.1%) at desired final concentrations. Cell viability was assessed before drugs' addition (To) and 5 days after test molecules addition by measuring ATP cell content using CellTiter-Glo® Luminescent Cell Viability Assay (Promega) according to the manufacturer's instructions. Luciferase activity was measured on a luminometer (PerkinElmer® EnVision™). Each concentration of compounds was tested in triplicate.
(§2) Viability was calculated as a percentage of ATP value compared to vehicle treated controls.
(§3) For PDX primary cell cultures, the tumour tissue was washed with PBS containing antibiotic-antimycotic and non-tumour tissue and necrotic tumour tissues were separated. The tumour tissue was transferred to a new dish and cut into 1˜2 mm^3 fragments, resuspended in RPMI-1640 medium and centrifuged at 1,200 rpm for 6 min at room temperature. The pelleted material was resuspended with 15 mL of Tumour Cell Digestion Solution and incubated at 37° C. for 1 hour with agitation. […]

The subject of test [2] is PC-07-0059. As to the kind of experiment: Cell viability, pancreatic PDX PC-07-0059. Here is the method:
as §1, §2, §3

The subject of test [3] is OVXF 899. As to the kind of experiment: Cell viability assay, OVXF 899. Conditions: ovarian carcinoma OVXF 899. On the procedure: (§4) Antitumor activity of the compounds and doxorubicin as a positive control was assessed by using the CellTiter-Blue Cell Viability Assay (Promega, #G8082) or CellTiter-Glow® Luminescent Cell Viability assay (Promega #G7572) according to the manufacturer's instructions. The compounds were tested at 5 or 6 concentrations in half-log increments (highest concentration 30 μM or 100 μM) in duplicate or triplicate well conditions.
(§5) Tumor cells were grown at 37° C. in a humidified atmosphere with 5% CO2 in RPMI 1640 or DMEM medium, supplemented with 10% (v/v) fetal calf serum and 50 μg/ml gentamicin for up to 20 passages, and were passaged once or twice weekly. Cells were harvested using TrypLE or PBS buffer containing 1 mM EDTA, and the percentage of viable cells was determined using a CASY Model TI cell counter (OMNI Life Science). Cells were harvested from exponential phase cultures, counted and plated in 96 well flat-bottom microtiter plates at a cell density depending on the cell line's growth rate (4,000-20,000 cells/well depending on the cell line's growth rate, up to 60,000 for hematological cancer cell lines) in RPMI 1640 or DMEM medium supplemented with 10% (v/v) fetal calf serum and 50 μg/ml gentamicin (140 μl/well). […] Viability of cells was quantified by the CellTiter-Blue® cell viability assay (Promega G8081) or CellTiter-Glow® Luminescent Cell Viability assay (Promega #G7572). […]

Test [4] concerns MDA-MB-468. As to the kind of experiment: Cell viability assay, MDA-MB-468. As to conditions: breast carcinoma cell line MDA-MB-468. Here is the method:
as §4, §5

Test [5] relates to ONCap. As to the kind of experiment: Cell viability assay, ONCap. Conditions: prostate carcinoma cell line ONCap. Here is the method: as §4, §5
Test [6] concerns HL-60. As to the kind of experiment: Cell viability assay, HL-60. Here is the method:
as §4
Tumor cells were grown at 37° C. in a humidified atmosphere with 5% CO2 in RPMI 1640 or DMEM medium, supplemented with 10% (v/v) fetal calf serum and 50 μg/ml gentamicin for up to 20 passages, and were passaged once or twice weekly. Cells were harvested using TrypLE or PBS buffer containing 1 mM EDTA, and the percentage of viable cells was determined using a CASY Model TI cell counter (OMNI Life Science). Cells were harvested from exponential phase cultures, counted and plated in 96 well flat-bottom microtiter plates at a cell density depending on the cell line's growth rate (4,000-20,000 cells/well depending on the cell line's growth rate, up to 60,000 for hematological cancer cell lines) in RPMI 1640 or DMEM medium supplemented with 10% (v/v) fetal calf serum and 50 μg/ml gentamicin (140 μl/well). Cultures were incubated at 37° C. and 5% CO2 in a humidified atmosphere. After 24 h, 10 μl of test compounds or control medium were added and left on the cells for another 72 h. Compounds were serially diluted in DMSO, transferred in cell culture medium, and added to the assay plates. The DMSO concentration was kept constant at <0.3% v/v across the assay plate. Viability of cells was quantified by the CellTiter-Blue® cell viability assay (Promega G8081) or CellTiter-Glow® Luminescent Cell Viability assay (Promega #G7572). Fluorescence (FU) was measured by using the EnSpire® multimode plate reader (Perkin Elmer) (excitation λ=570 nm, emission λ=600 nm) Luminescence was measured with a microplate luminometer (Promega or PerkinElmer). […]

Test [7] relates to PC-07-0045. As to the kind of experiment: Cell viability, pancreatic PDX PC-07-0045. Here is the method: as §1, §2, §3
The subject of test [8] is SF-268. The test is described as follows: Cell viability assay, SF-268. Conditions: brain carcinoma cell line SF-268. Here is the method:
as §4, §5

Test [9] concerns ST-02-0322. As to the kind of experiment: Cell viability, stomach PDX ST-02-0322. Here is the method: as §1, §2, §3
Test [10] has as its system ST-020012. As to the kind of experiment: Cell viability, stomach PDX ST-020012. On the procedure:
as §1, §2, §3

The subject of test [11] is KM-12. As to the kind of experiment: Cell viability assay, KM-12. As to conditions: colon carcinoma cell line KM-12. Here is the method:
as §4, §5

The subject of test [12] is CO-04-0700. The test is described as follows: Cell viability, colon PDX CO-04-0700. Here is the method: as §1, §2, §3
For test [13], the system named is LU-01-0010. The test is described as follows: Cell viability, lung PDX LU-01-0010. On the procedure: as §1, §2, §3
Test [14] relates to ST-02-0007. As to the kind of experiment: Cell viability, stomach PDX ST-02-0007. Here is the method: as §1, §2, §3
For test [15], the system named is EN-11-0101. As to the kind of experiment: Cell viability, endometrial PDX EN-11-0101. On the procedure: as §1, §2
(§6) For PDX primary cell cultures, the tumour tissue was washed with PBS containing antibiotic-antimycotic and non-tumour tissue and necrotic tumour tissues were separated. The tumour tissue was transferred to a new dish and cut into 1˜2 mm^3 fragments, resuspended in RPMI-1640 medium and centrifuged at 1,200 rpm for 6 min at room temperature. The pelleted material was resuspended with 15 mL of Tumour Cell Digestion Solution and incubated at 37° C. for 1 hour with agitation. Following further addition of media, centrifugation and passage through a 70 μm cell strainer, the homogenous cell mixture was layered onto 15 mL of Ficoll-Paque PLUS in a 50 mL conical tube and centrifuged for 15 min at 1,600 rpm. The interface cells were collected, washed with media, separated by centrifugation at 1,200 rpm. The cell pellet was resuspended in serum free media supplemented with growth factors. 10,000 cells/wells were plated in a 96 well plate and incubated at 37° C., 5% CO2, 95% air and 100% relative humidity overnight. The cytotoxicity assay was conducted as above.
(§7) Sigmoidal concentration-response curves were fitted to the data points (test-versus-control, T/C values) obtained for each tumor model using GraphPad prism 5.02 software.

Test [16] relates to LU-01-0025. The test is described as follows: Cell viability, lung PDX LU-01-0025. On the procedure:
as §1, §2, §3

Test [17] has as its system 22Rv1. The test is described as follows: Cell viability assay, 22Rv1. As to conditions: prostate carcinoma cell line 22Rv1. Here is the method: as §4, §5
Test [18] deals with LU-01-0004. The test is described as follows: Cell viability, lung PDX LU-01-0004. Here is the method: as §1, §2, §3
The subject of test [19] is CH-17-0091. As to the kind of experiment: Cell viability, bile duct PDX CH-17-0091. On the procedure: as §1, §2, §3
Test [20] deals with LY-24-0340. As to the kind of experiment: Cell viability, lymphoma PDX LY-24-0340. On the procedure:
as §1, §2, §6, §7

[21] abbreviates: endometrial PDX EN-11-0101, read-out: IC50.
Where [22] appears, read: lymphoma PDX LY-24-0340, read-out: IC50.

The IC50 is the concentration at which inhibition is half-maximal. As for `COc1c(O)ccc2c(=O)c(O)c(-c3ccc(CCCC[P+](c4ccccc4)(c4ccccc4)c4ccccc4)cc3)oc12` [SND190, (4-(4-(3,7-Dihydroxy-8-methoxy-4-oxo-4H1-chromen-2-yl)phenyl)butyl)triphenylphosphonium bromide], the IC50 is 6.5 µM in test [1]; 2.3 µM in test [2]; 8.76 µM in [3]; 300 nM in test [4] (Homo sapiens); 1500 nM in [5]; < 1000 nM in test [6] (Homo sapiens, HL-60, summary of Table 12, read-out: IC50, leukaemia cell growth). Further, the IC50 in test [6] (Homo sapiens, leukaemia cell line HL-60, read-out: IC50) amounted to 300 nM; in test [7] it was 3400 nM; in test [8] (Homo sapiens) it was 4.1 µM; in test [9] it was 6.3 µM; in test [10], 4.5 µM; in test [11] (Homo sapiens, KM12), 1700 nM. In addition, the IC50 is 2.4 µM in test [12]; 1.1 µM in test [13]; 5.7 µM in test [14]; < 20 µM in test [15] (Table 8, read-out: IC50, endometrial PDX growth); 7.9 µM in test [15] (setting [21]); 600 nM in test [16]. Also, the IC50 in test [17] (Homo sapiens) was 790 nM; in test [18] it was 5.4 µM; in test [19], 4 µM; in test [20] (Table 16, read-out: IC50, lymphoma PDX growth) it was < 5 µM; in [20] (setting [22]) it was 3.8 µM.

With `O=c1cc(-c2ccc(CCC[P+](c3ccccc3)(c3ccccc3)c3ccccc3)cc2)oc2c(O)c(O)ccc12` [SND200, (3-(4-(7,8-Dihydroxy-4-oxo-4H1-chromen-2-yl)phenyl)propyl)triphenylphosphonium bromide], the 50% inhibitory concentration (IC50) in test [1] amounted to 8.8 µM; in test [2] it was 6.7 µM; in [3], 6.37 µM; in test [4] it was 300 nM; in test [5] it was 520 nM; in [6] (leukaemia cell line HL-60, read-out: IC50) it was 300 nM. The half-inhibitory concentration (IC50) in test [7] stood at 2300 nM; in test [8], 7.83 µM; in test [9], 8.5 µM; in test [10], 8.8 µM; in [11], 440 nM; in test [12], 7.6 µM. Besides, the IC50 is 10 µM in test [13]; 9.4 µM in test [14]; 10.4 µM in test [15] (setting [21]); 4900 nM in [16]; 420 nM in test [17]; 9.8 µM in [18]. Moreover, the IC50 in [19] worked out at 9.5 µM; in test [20] (setting [22]), 4 µM.
